# pIC50: −log10 of the molar value. Where two headings read alike, the source gives them in different places.
# Legend:
# [1] = in DMSO, cited from earlier work
# SOD1^G93A mice = experiment: Biodistribution and targeting in ALS mouse model by NIR imaging; type: in vivo; conditions: 25 nmol retro-orbital, 4 h post-injection
# Method: For biodistribution and targeting studies, 12-week-old B6SJLF1/J (SOD1^G93A)1Gur male mice (25 to 30 g) were purchased from the Charles River Laboratories (Wilmington, MA). Animals were housed in an AAALAC-certified facility [Massachusetts General Hospital (MGH) #D16-00361], and all animal studies were performed in accordance with the Public Health Service Policy on Humane Care of Laboratory Animals and approved by the MGH Institutional Animal Care and Use Committee (IACUC) (#N2016000136). […] Each mouse was set on the wire lid of a typical housing cage, which was then turned on its side. It was timed how long it took after the test started for the mouse to stand with at least 2 limbs on the lid. The longest latency was noted after the animals were given 3 chances to stand for a maximum of 3 min per trial. The hemizygous SOD1^G93A mice were selected via genotyping polymerase chain reaction (PCR) assay. Mice were fed chlorophyll-free mouse chow (VWR International. Radnor, PA) at least 5 d prior to imaging to minimize autofluorescence. […]
# For all real-time intraoperative imaging, a standardized imaging protocol was employed throughout the procedure using our custom-made imaging system, as previously described. […] The signal-to-background ratio (SBR) was calculated as follows: SBR=IROI/IAuto (2) where IROI denotes the average intensity of an ROI and IAuto represents the intensity of the muscle.
# [2] = test system: SH-SY5Y cells and fibroblast NIH3T3 cells; experiment: Cytotoxicity, Cell Counting Kit-8 (CCK-8); type: cell-based; conditions: Homo sapiens, 0 to 20 μM, 24 h, read-out: IC50 (cell viability)
# Method: Cell viability was assessed using Cell Counting Kit-8 (CCK-8) from Dojindo Molecular Technologies Inc. (Kumamoto, Japan). Briefly, SH-SY5Y and NIH3T3 cells were seeded into 96-well plates at a density of 2,500 cells per well. The cells were then treated with 0 to 20 μM of each fluorophore in growth medium for 24 h, and 10% CCK-8 solutions were added to each well. The plates were incubated at 37 °C for 4 h, and absorbance was measured at 450 nm using a SpectraMax M5 plate reader (Molecular Devices). Cell viability (%) = (Asample − Ab)/(Ac − Ab) × 100, where Asample, Ab, and Ac denote the absorbance reading of sample, blanks, and negative control wells, respectively.
# SH-SY5Y cells [3] = experiment: Cellular uptake inhibition (BSP pretreatment or 4 °C); type: cell-based, human
# Method: SH-SY5Y cells were seeded on a 24-well plate (Corning Costar, no. 3524) and incubated at 37 °C for 48 h. To determine the role of membrane transporter in ALS04 retention, SH-SY5Y cells were pretreated with 250 μM sulfobromophthalein disodium (BSP; MedChemExpress, HY-D0217) at 37 °C for 20 min. Cells were then incubated with 1 μM of ALS04 and NucBlue (Invitrogen, Hoechst 33342, no. R37605) for 20 min at 37 °C. To evaluate the contribution of diffusion across the plasma membrane, cells were also incubated at 4 °C for 30 min, followed by incubation with 1 μM ALS04 at 4 °C for 20 min. After washing, the cells were imaged using BioTek Cytation 5. The fluorescence intensity of each cell was determined using ImageJ.
# [4] = Optical properties (absorbance, fluorescence, quantum yield) in DMSO; type: physicochemical
# Method: MarvinSketch (ver. 23.11) and InstantJChem (ver. 23.17) calculator plug-ins (ChemAxon, Budapest, Hungary) were used to calculate in silico physicochemical property, such as molecular weight (MW), the partition and distribution coefficient (LogP and LogD at pH 7.4), surface molecular charge, hydrophobicity, the hydrogen bond acceptors/donors (HBA/HBD), the acid dissociation constant (pKa), the topological polar surface area (TPSA), and BBB score. The BBB score is determined by 5 key physicochemical descriptors, including the number of aromatic rings, the number of heavy atoms, MWHBN (a parameter derived from MW and the number of HBA/HBD), TPSA, and pKa. The final score is computed using stepwise methods for descriptors with discrete values and polynomial weight functions for descriptors with continuous ranges (ChemAxon). The absorbance and fluorescence emission spectra of ALS04 and ALS05 at varying concentrations were measured in dimethyl sulfoxide (DMSO) using HR2000 absorbance spectrometers (200 to 1,100 nm) and USB2000FL fluorescence spectrometers (350 to 1,000 nm) from Ocean Optics (Dunedin, FL). Fluorescence emission spectra were collected under NIR excitation using a 760-nm laser pointer (Opcom Inc., Xiamen, China). […] The fluorescence emission spectrum was integrated and plotted as a function of absorbance at 755 nm, and a linear fit was applied to determine the slope between fluorescence intensity and absorbance. […] A small, accurately weighed amount of each fluorophore was added to a minimal volume of solvents, and the saturated solution was then vortexed and sonicated for 5 min to ensure complete dissolution of the solids. Following this, the solution was centrifuged at 1,500g for 10 min, and the absorbance of the supernatant was measured. The solubility (g/l) was calculated by multiplying the maximum absorbance-derived concentration by the MW of each fluorophore.
# SH-SY5Y cells [5] = experiment: Subcellular localization (colocalization with LysoTracker/MitoTracker); type: cell-based, human; conditions: 1 μM, 30 min, 37 °C
# Method: Human neuroblastoma SH-SY5Y cells [American Type Culture Collection (ATCC), Manassas, VA, USA] were cultured in a 1:1 mixture of Eagle’s minimum essential medium (EMEM; no. 30-2003, ATCC, Manassas, VA, USA) and F12K with 10% FBS and 1% penicillin-streptomycin solution. Cells were grown in a humidified atmosphere of 5% CO2 at 37 °C. The medium was replaced every 3 to 4 d, and cells were subcultured using trypsin–EDTA when 70% to 80% confluent. All media and supplements were purchased from Gibco (Gaithersburg, MD, USA). To optimize the imaging condition in this study, cells were incubated at 37 °C for 10 to 30 min in the presence of 0.1 to 1 μM of ALS04 and ALS05. After washing, the cells were imaged using BioTek Cytation 5. Fluorescence intensity was quantified using the threshold analysis method implemented in the ImageJ software. […] The cells were then washed and stained with NucBlue (2 drops/ml, Live ReadyProbes Reagent, Hoechst 33342, Invitrogen no. R37605), Lysotracker Yellow (5 μM, Invitrogen, no. L12491), and MitoTracker Deep Red (0.5 μM) (Invitrogen, no. M22426) to stain lysosome and mitochondria for 30 min as per the manufacturer’s instruction. […] Mander’s colocalization coefficients were then determined using the Costes method to choose threshold values on ImageJ [24].
# [6] = Pharmacokinetics after single intravenous injection (2-compartment model); type: in vivo, CD-1 mice; conditions: 25 nmol i.v. in 2.5% PEG400 and 5% BSA in saline; for half-life: 25 nmol
# Method: (§1) Six-week-old CD-1 mice were used to quantify the blood clearance rate and urinary excretion. Mice were injected with 25 nmol of ALS04 or ALS05 in saline containing 2.5% PEG400 (polyethylene glycol, molecular weight 400) and 5% BSA via intravenous injection under isoflurane anesthesia, and blood was collected in heparinized capillary tubes (Fisher Scientific, Pittsburgh, PA) by tail nick before injection and at 1, 3, 5, 10, 30, 60, 120, 180, and 240 min post-injection and then stored in an icebox to prevent clotting. The supernatants of collected blood were filled into capillary microtubes (Fisher Scientific) after centrifugation. Mice were euthanized with CO2 inhalation to image organs and collect urine from the bladder 4 h post-injection. Collected urine samples were also placed into capillary microtubes. The fluorescence intensities of the microtubes were measured by NIR imaging along with a set of standard ALS04 or ALS05 samples of known concentrations to analyze the pharmacokinetics. Pharmacokinetic analysis was performed using the 2-compartment model (or biexponential decay) to estimate distribution (t1/2α) and elimination (t1/2β) blood half-life, the volume of distribution, and clearance. Results were presented as a biexponential decay curve.
# [7] = Solubility in 5% BSA in saline; type: physicochemical; conditions: 5% bovine serum albumin in saline, plasma or biological fluid, thermodynamic from solid
# Method: MarvinSketch (ver. 23.11) and InstantJChem (ver. 23.17) calculator plug-ins (ChemAxon, Budapest, Hungary) were used to calculate in silico physicochemical property, such as molecular weight (MW), the partition and distribution coefficient (LogP and LogD at pH 7.4), surface molecular charge, hydrophobicity, the hydrogen bond acceptors/donors (HBA/HBD), the acid dissociation constant (pKa), the topological polar surface area (TPSA), and BBB score. The BBB score is determined by 5 key physicochemical descriptors, including the number of aromatic rings, the number of heavy atoms, MWHBN (a parameter derived from MW and the number of HBA/HBD), TPSA, and pKa. […] The absorbance and fluorescence emission spectra of ALS04 and ALS05 at varying concentrations were measured in dimethyl sulfoxide (DMSO) using HR2000 absorbance spectrometers (200 to 1,100 nm) and USB2000FL fluorescence spectrometers (350 to 1,000 nm) from Ocean Optics (Dunedin, FL). Fluorescence emission spectra were collected under NIR excitation using a 760-nm laser pointer (Opcom Inc., Xiamen, China). […] The fluorescence emission spectrum was integrated and plotted as a function of absorbance at 755 nm, and a linear fit was applied to determine the slope between fluorescence intensity and absorbance. […] Following this, the solution was centrifuged at 1,500g for 10 min, and the absorbance of the supernatant was measured. […]
# [8] = Photostability under continuous 760-nm irradiation in 5% BSA; type: physicochemical; conditions: 5% BSA solution, NIR imaging conditions
# Method: To investigate the photostability of ALS04 and ALS05, 10 mM stock solutions were diluted to obtain working solutions, with concentrations of 100, 50, 20, and 10 μM in 5% BSA solution, which were then dispensed into a black 96-well plate. Subsequently, the 200-μl working solutions were exposed to continuous irradiation using a 760-nm laser diode at 4 mW/cm^2, with white light (400 to 650 nm) at 40,000 lux, and imaged for 240 min. The fluorescence (%) was calculated by analyzing the measured values with ImageJ v1.52 (National Institutes of Health, Bethesda, MD, USA) using images captured at each time point. The data, presented as mean ± SD, assessed stability by measuring regions of interest (ROIs) and comparing fluorescence intensity against the initial fluorescence signal.
# CD-1 mice = experiment: Biodistribution and clearance by NIR imaging; type: in vivo; conditions: 4 h post-injection
# Method: as §1
# For all real-time intraoperative imaging, a standardized imaging protocol was employed throughout the procedure using our custom-made imaging system, as previously described. Briefly, imaging utilized a 760-nm excitation source at a fluence rate of 4 mW/cm^2 combined with white light illumination (400 to 650 nm) at 40,000 lux. Camera exposure time was adjusted as needed to accurately capture the biodistribution of the fluorophores. Mice were maintained under general anesthesia using isoflurane or a combination of ketamine and xylazine (Webster Veterinary, Fort Devens, MA), and a midline incision was performed to expose the abdominal cavity. For imaging, a general field of view (FOV) of 5 cm in diameter was used to include the pancreas head, duodenum, liver, and kidneys, while a close-up FOV of 3.3 cm in diameter focused specifically on the pancreas head and duodenum. Following imaging, the mice were euthanized using CO₂ inhalation. Major organs, including the heart, lung, liver, pancreas, spleen, kidney, duodenum, intestine, and muscle, were excised and imaged ex vivo to evaluate fluorophore biodistribution and excretion pathways. The signal-to-background ratio (SBR) was calculated as follows: SBR=IROI/IAuto (2) where IROI denotes the average intensity of an ROI and IAuto represents the intensity of the muscle.
# SH-SY5Y cells [9] = experiment: In vitro model of mitochondrial dysfunction (MPP+); type: cell-based, human; conditions: MPP+ 30, 125, 500 μM for 24 h, then 1 μM for 30 min
# Method: SH-SY5Y cells were seeded into 6-well plates (Corning Costar, no. 3516) at a density of 12,000 cells/well overnight. Cells were maintained at 37 °C in a humidified atmosphere of 5% CO2. To model mitochondrial dysfunction, undifferentiated and differentiated SH-SY5Y cells were incubated with 30, 125, and 500 μM 1-methyl-4-phenylpyridinium (MPP^+; Neurotoxin agent, Cayman, no. 16958) in the medium for 24 h. The control groups for undifferentiated and differentiated SH-SY5Y cells were treated with the same medium without MPP^+. The cells were then washed with 10% FBS/HBSS. After washing, cells were incubated with 1 μM of ALS04, MitoTracker Deep Red, and NucBlue for 30 min. The cells were imaged using BioTek Cytation 5. The fluorescent intensity of each cell was measured using ImageJ.
structure (smiles),measurement,setting,value
"CC1(C)C(/C=C/C=C/C=C/C=C2\N(CCCCS(=O)(=O)O)c3ccc4ccccc4c3C2(C)C)=[N+](CCCCS(=O)(=O)[O-])c2ccc3ccccc3c21 [ICG, indocyanine green]",QY (quantum yield),[1]; reference standard,13%
same,Molar absorptivity,[1],"232,000 M^−1 cm^−1"
CN1/C(=C/C2=CC3=C/C(=C/c4sc5ccccc5[n+]4C)CCC3CC2)Sc2ccccc21 (stereo not shown) [ALS04],Uptake in BAT of SOD1^G93A mice compared to sham mice,"SOD1^G93A mice; 3-month-old asymptomatic mice, ****P ≤ 0.0001",significantly reduced
same,Signals in ventral temporal (VT) lobe and third ventricle (3v) of ALS mice compared to sham mice,SOD1^G93A mice; **P ≤ 0.01,significantly higher
same,pIC50,[2],~5.89
same,Fluorescence signal (cellular uptake) after OATP inhibitor BSP,"SH-SY5Y cells [3]; 250 μM BSP pretreatment 20 min, then 1 μM for 20 min, ****P ≤ 0.0001",significant reduction
same,Cellular uptake at 4 °C,"SH-SY5Y cells [3]; cells at 4 °C 30 min, then 1 μM at 4 °C for 20 min",significantly reduced
same,Ext. coeff. (molar absorptivity),[4],"169,600 M^-1cm^-1"
same,Max. Abs (excitation maximum),[4],751 nm
same,Max. Fl (emission maximum),[4],774 nm
same,QY (quantum yield),[4]; ICG as reference,6.0%
same,Colocalization with lysosomes (colocalizing pixels),SH-SY5Y cells [5]; LysoTracker,8.5%
same,Colocalization with mitochondria (colocalizing pixels),SH-SY5Y cells [5]; MitoTracker,71%
same,AUC,[6],775.6 nmol·min/mL
same,half-life,"[6]; CD-1, mouse, plasma, iv, read-out: t1/2α (distribution blood half-life)",1.82 min
same,half-life,"[6]; CD-1, mouse, plasma, iv, read-out: t1/2β (elimination blood half-life)",79.9 min
same,clearance,"[6]; CD-1, mouse, plasma, iv, read-out: Cl (clearance)",0.067 mL/min
same,Vd,"[6]; CD-1, mouse, plasma, iv, read-out: Vd (volume of distribution)",0.00296 L
same,solubility at 5 min,[7],2530 µg/mL
same,Photostability (retained fluorescence) at 10 μM,"[8]; 10 μM, 240 min",60%
same,Photostability (retained fluorescence),[8]; up to 240 min,over 90%
same,SBR in duodenum or intestine and kidneys,CD-1 mice; 25 nmol,relatively high SBR
same,Signal in the bladder,CD-1 mice; 25 nmol,Little signal
same,Clearance route,"CD-1 mice; 25 nmol, intravital NIR imaging",both renal and hepatic clearance
same,Signals in brown adipose tissue (BAT) and pituitary gland (PG) compared to ALS05,"CD-1 mice; 25 nmol, ****P ≤ 0.0001 BAT, *P = 0.0324 PG",highly selective accumulated signals
same,Ex vivo signal in the gastrointestinal tract,CD-1 mice; resected organs,high signal
same,Ex vivo signal in the kidney compared to ALS05,CD-1 mice; resected organs,noticeably higher signal
same,Colocalization with mitochondria after MPP+ treatment,SH-SY5Y cells [9],dose-dependent reduction

# Reference: paper PMC11912748, “Image-Guided Monitoring of Mitochondria and Blood–Brain Barrier Dysfunction in Amyotrophic Lateral Sclerosis Mice” (Biomaterials Research, 2025)
